Experiments:
KRAS-G12V/RAF1 = KRAS-G12V/RAF1 (Homo sapiens (Human), UniProt P01116, G12V); assay: KRAS/RAF1 binding inhibition assay (AlphaScreen)
Protocol: Binding affinity against GTP-bound KRAS of the compounds disclosed herein was measured by monitoring the interaction of guanosine 5′-[β,γ-imido]triphosphate-bound (GppNHp-bound) KRAS with the RBD domain of RAF1 in the presence of the test compound. […] The test compounds in 2% DMSO (final concentration) at various concentrations were then added to the reaction mixture and incubated for 60 minutes at 4° C.
Raw ALphaScreen data were converted to a percentage of inhibition (relative to DMSO) using the following equations: • a) For a given test compound concentration X: […]
The IC50 values were determined by nonlinear regression of plots of [inhibitor] vs. percentage of inhibition with variable slope, analyzed using GraphPad Prism (Version 9).

KRAS G12V = KRAS G12V (Homo sapiens (Human), UniProt P01116, G12V); assay: KRAS G12V degradation in SW620 cells (Western blot, DC50); assay type: cell-based; conditions: 24 hours
Sequence of KRAS G12V (P01116-2 other isoform, or with tags, fused parts or gaps G12V): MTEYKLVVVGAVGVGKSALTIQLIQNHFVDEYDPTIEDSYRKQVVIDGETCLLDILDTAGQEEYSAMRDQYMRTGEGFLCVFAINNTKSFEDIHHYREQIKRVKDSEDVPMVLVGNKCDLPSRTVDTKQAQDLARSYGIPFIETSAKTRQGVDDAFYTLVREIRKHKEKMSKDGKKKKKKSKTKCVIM
Protocol: SW620 (KRAS G12V homozygous), AsPC1 (KRAS G12D homozygous), MIA PaCa2 (KRAS G12C homozygous), A549 (KRAS G12S homozygous) and MCF7 (KRAS WT) cells were obtained from American Type Culture Collection (ATCC). […] The following day, the test compound was administered to the cells by using 1000× compound stock solution prepared in DMSO at various concentrations. After administration of the compound, the cells were then incubated at 37° C. for 24 hours. Upon completion, the cells were washed with PBS and protein was collected in Laemmli sample buffer (1×; VWR International). Proteins in cell lysate were separated by SDS-PAGE and transferred to Odyssey nitrocellulose membranes (Licor) with iblot® dry blotting transfer system (ThermoFisher). Nonspecific binding was blocked by incubating membranes with Intercept Blocking Buffer (Licor) for 1 hour at room temperature with gentle shaking. […] After washing 3 times with TBS-T, the membranes were incubated with IRDye® 800CW goat anti-rabbit IgG (1:20,000, Licor) and IRDye® 680RD goat anti-mouse IgG (1:20,000, Licor) for 1 hour. After TBS-T washes, membranes were rinsed in TBS and Western blot images were acquired by Odyssey CLx (LI-COR Biosciences).
The signal intensity of target proteins was calculated using ImageStudio software. KRAS fluorescent intensity (FLU) from DMSO (vehicle) treatment was set as 100%. Relative KRAS expression level was determined by the following formula: […]
The percentage of KRAS expression was calculated using Microsoft Excel. The half-maximal degradation concentration (DCso) values were generated by GraphPad Prism (Version 9) using the dose-response equation of variable slope (four parameters).

Sequence of KRAS-G12V/RAF1 (P01116-2 other isoform, or with tags, fused parts or gaps G12V): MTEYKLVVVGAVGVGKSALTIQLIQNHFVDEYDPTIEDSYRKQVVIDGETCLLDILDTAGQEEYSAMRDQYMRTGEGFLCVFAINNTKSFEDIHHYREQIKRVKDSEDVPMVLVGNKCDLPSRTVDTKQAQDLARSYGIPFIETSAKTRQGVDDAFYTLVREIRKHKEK

SMILES	IC50 (KRAS-G12V/RAF1)	DC50 (KRAS G12V)
C[C@@]1(O)CCCN(c2nc(OCC3(CN4CCC5(CC4)CC(CN4CCN(c6ccc7c(c6)CN([C@H]6CCC(=O)NC6=O)C7=O)CC4)C5)CC3)nc3c(F)c(-c4cc(O)cc5ccc(F)c(F)c45)ncc23)C1 [Compound 103, (S)-3-(5-(4-((7-((1-(((7-(7,8-difluoro-3-hydroxynaphthalen-1-yl)-8-fluoro-4-((R)-3-hydroxy-3-methylpiperidin-1-yl)pyrido[4,3-d]pyrimidin-2-yl)oxy)methyl)cyclopropyl)methyl)-7-azaspiro[3.5]nonan-2-yl)methyl)piperazin-1-yl)-1-oxoisoindolin-2-yl)piperidine-2,6-dione]	20 to 200 nM	< 1 nM
CCc1c(F)ccc2cc(O)cc(-c3ncc4c(N5CCOC[C@](C)(O)C5)nc(OCC5(CN6CCC7(CC6)CC(CN6CCN(c8ccc9c(c8)CN([C@H]8CCC(=O)NC8=O)C9=O)CC6)C7)CC5)nc4c3F)c12 [Compound 113, (S)-3-(5-(4-((7-((1-(((7-(8-ethyl-7-fluoro-3-hydroxynaphthalen-1-yl)-8-fluoro-4-((R)-6-hydroxy-6-methyl-1,4-oxazepan-4-yl)pyrido[4,3-d]pyrimidin-2-yl)oxy)methyl)cyclopropyl)methyl)-7-azaspiro[3.5]nonan-2-yl)methyl)piperazin-1-yl)-1-oxoisoindolin-2-yl)piperidine-2,6-dione]	> 200 nM	> 100 nM
CCc1cccc2cc(O)cc(-c3ncc4c(N5CCNC(=O)CC5)nc(OCC5(CN6CCC(CN7CCN(c8ccc9c(c8)CN([C@H]8CCC(=O)NC8=O)C9=O)CC7)CC6)CC5)nc4c3F)c12 [Compound 127, (S)-3-(5-(4-((1-((1-(((7-(8-ethyl-3-hydroxynaphthalen-1-yl)-8-fluoro-4-(5-oxo-1,4-diazepan-1-yl)pyrido[4,3-d]pyrimidin-2-yl)oxy)methyl)cyclopropyl)methyl)piperidin-4-yl)methyl)piperazin-1-yl)-1-oxoisoindolin-2-yl)piperidine-2,6-dione]		> 100 nM
CCc1cccc2cc(O)cc(-c3ncc4c(N5CCOC[C@](C)(O)C5)nc(OCC5(CN6CCC7(CC6)CC(CN6CCN(c8ccc9c(c8)CN([C@H]8CCC(=O)NC8=O)C9=O)CC6)C7)CC5)nc4c3F)c12 [Compound 107, (S)-3-(5-(4-((7-((1-(((7-(8-ethyl-3-hydroxynaphthalen-1-yl)-8-fluoro-4-((R)-6-hydroxy-6-methyl-1,4-oxazepan-4-yl)pyrido[4,3-d]pyrimidin-2-yl)oxy)methyl)cyclopropyl)methyl)-7-azaspiro[3.5]nonan-2-yl)methyl)piperazin-1-yl)-1-oxoisoindolin-2-yl)piperidine-2.6-dione]	> 200 nM	> 100 nM
CCc1cccc2cc(O)cc(-c3ncc4c(N(C)C5C[C@H]5F)nc(OCC5(CN6CCC(CN7CCN(c8ccc9c(c8)CN([C@H]8CCC(=O)NC8=O)C9=O)CC7)CC6)CC5)nc4c3F)c12 (stereo partly drawn) [Compound 29, (S)-3-(5-(4-((1-((1-(((7-(8-ethyl-3-hydroxynaphthalen-1-yl)-8-fluoro-4-(((1R,2R)-2-fluorocyclopropyl)(methyl)amino)pyrido[4,3-d]pyrimidin-2-yl)oxy)methyl)cyclopropyl)methyl)piperidin-4-yl)methyl)piperazin-1-yl)-1-oxoisoindolin-2-yl)piperidine-2,6-dione]		1 to 10 nM
CCc1cccc2cc(O)cc(-c3ncc4c(N5CCC[C@@](C)(O)C5)nc(OCC5(CN6CC7(CCC(F)(CN8CCN(c9ccc%10c(c9)CN([C@H]9CCC(=O)NC9=O)C%10=O)CC8)CC7)C6)CC5)nc4c3F)c12 [Compound 179, (S)-3-(5-(4-((2-((1-(((7-(8-ethyl-3-hydroxynaphthalen-1-yl)-8-fluoro-4-((R)-3-hydroxy-3-methylpiperidin-1-yl)pyrido[4,3-d]pyrimidin-2-yl)oxy)methyl)cyclopropyl)methyl)-7-fluoro-2-azaspiro[3.5]nonan-7-yl)methyl)piperazin-1-yl)-1-oxoisoindolin-2-yl)piperidine-2,6-dione]	20 to 200 nM	
CCc1c(F)ccc2cc(O)cc(-c3ncc4c(N5CCC[C@@](C)(O)C5)nc(OCC5(CN6CCC(N7CCN(c8ccc9c(c8)CN([C@H]8CCC(=O)NC8=O)C9=O)CC7)CC6)CC5)nc4c3F)c12 [Compound 7, (S)-3-(5-(4-(1-((1-(((7-(8-ethyl-7-fluoro-3-hydroxynaphthalen-1-yl)-8-fluoro-4-((R)-3-hydroxy-3-methylpiperidin-1-yl)pyrido[4,3-d]pyrimidin-2-yl)oxy)methyl)cyclopropyl)methyl)piperidin-4-yl)piperazin-1-yl)-1-oxoisoindolin-2-yl)piperidine-2.6-dione]		< 1 nM

Second part, the compound after the results:

IC50 (KRAS-G12V/RAF1)	DC50 (KRAS G12V)	SMILES
	> 100 nM	CCc1c(F)ccc2cc(O)cc(-c3ncc4c(N5CCCNC(=O)C5)nc(OCC5(CN6CCC(CN7CCN(c8ccc9c(c8)CN([C@H]8CCC(=O)NC8=O)C9=O)CC7)CC6)CC5)nc4c3F)c12 [Compound 95, (S)-3-(5-(4-((1-((1-(((7-(8-ethyl-7-fluoro-3-hydroxynaphthalen-1-yl)-8-fluoro-4-(3-oxo-1,4-diazepan-1-yl)pyrido[4,3-d]pyrimidin-2-yl)oxy)methyl)cyclopropyl)methyl)piperidin-4-yl)methyl)piperazin-1-yl)-1-oxoisoindolin-2-yl)piperidine-2,6-dione]
	1 to 10 nM	CCc1c(F)ccc2cc(O)cc(-c3ncc4c(N5CCC[C@]6(CCO6)C5)nc(OCC5(CN6CCC(CN7CCN(c8ccc9c(c8)CN(C8CCC(=O)NC8=O)C9=O)CC7)CC6)CC5)nc4c3F)c12 (stereo partly drawn) [Compound 44, (S)-3-(5-(4-((1-((1-(((7-(8-ethyl-7-fluoro-3-hydroxynaphthalen-1-yl)-8-fluoro-4-((S)-1-oxa-6-azaspiro[3.5]nonan-6-yl)pyrido[4,3-d]pyrimidin-2-yl)oxy)methyl)cyclopropyl)methyl)piperidin-4-yl)methyl)piperazin-1-yl)-1-oxoisoindolin-2-yl)piperidine-2,6-dione]
> 200 nM	> 100 nM	CCc1c(F)ccc2cc(O)cc(-c3ncc4c(N5CCOC[C@](C)(O)C5)nc(OCC5(CN6CCC(CN7CCN(c8ccc9c(c8)CN([C@H]8CCC(=O)NC8=O)C9=O)CC7)CC6)CC5)nc4c3F)c12 [Compound 112, (S)-3-(5-(4-((1-((1-(((7-(8-ethyl-7-fluoro-3-hydroxynaphthalen-1-yl)-8-fluoro-4-((R)-6-hydroxy-6-methyl-1,4-oxazepan-4-yl)pyrido[4,3-d]pyrimidin-2-yl)oxy)methyl)cyclopropyl)methyl)piperidin-4-yl)methyl)piperazin-1-yl)-1-oxoisoindolin-2-yl)piperidine-2,6-dione]
20 to 200 nM		CCc1c(F)ccc2cc(O)cc(-c3ncc4c(N5CCOCC6(CCO6)C5)nc(OCC5(CN6CCC(CN7CCN(c8ccc9c(c8)CN([C@H]8CCC(=O)NC8=O)C9=O)CC7)CC6)CC5)nc4c3F)c12 (stereo partly drawn) [Compound 125, (3S)-3-(5-(4-((1-((1-(((7-(8-ethyl-7-fluoro-3-hydroxynaphthalen-1-yl)-8-fluoro-4-(1,6-dioxa-9-azaspiro[3.6]decan-9-yl)pyrido[4,3-d]pyrimidin-2-yl)oxy)methyl)cyclopropyl)methyl)piperidin-4-yl)methyl)piperazin-1-yl)-1-oxoisoindolin-2-yl)piperidine-2,6-dione]
	1 to 10 nM	CCc1c(F)ccc2cc(O)cc(-c3ncc4c(N5CCCC6(CCO6)C5)nc(OCC5(CN6CCC(CN7CCN(c8ccc9c(c8)CN(C8CCC(=O)NC8=O)C9=O)CC7)CC6)CC5)nc4c3F)c12 [Compound 23, (3S)-3-(5-(4-((1-((1-(((7-(8-ethyl-7-fluoro-3-hydroxynaphthalen-1-yl)-8-fluoro-4-(1-oxa-6-azaspiro[3.5]nonan-6-yl)pyrido[4,3-d]pyrimidin-2-yl)oxy)methyl)cyclopropyl)methyl)piperidin-4-yl)methyl)piperazin-1-yl)-1-oxoisoindolin-2-yl)piperidine-2,6-dione]
	> 100 nM	CCc1c(F)ccc2cc(O)cc(-c3ncc4c(N5CCC[C@@]6(CCO6)C5)nc(OCC5(CN6CCC(CN7CCN(c8ccc9c(c8)CN(C8CCC(=O)NC8=O)C9=O)CC7)CC6)CC5)nc4c3F)c12 (stereo partly drawn) [Compound 45, (S)-3-(5-(4-((1-((1-(((7-(8-ethyl-7-fluoro-3-hydroxynaphthalen-1-yl)-8-fluoro-4-((R)-1-oxa-6-azaspiro[3.5]nonan-6-yl)pyrido[4,3-d]pyrimidin-2-yl)oxy)methyl)cyclopropyl)methyl)piperidin-4-yl)methyl)piperazin-1-yl)-1-oxoisoindolin-2-yl)piperidine-2,6-dione]

— patent US20250092039A1, “GLUTARIMIDE-CONTAINING PAN-KRAS-MUTANT DEGRADER COMPOUNDS AND USES THEREOF” (Tiger Biotherapeutics Inc., priority 2022, published 2025)
